Source: patent US11657895B2, “Methods for identifying treatment targets based on multiomics data” (INSTITUTE FOR SYSTEMS BIOLOGY, priority 2016, dated 2023)

What was measured:
[1] = system: GBM cell lines; settings: 1.85 nM romidepsin, Sawa et al., 2004; cited from earlier work
[2] = Iwamoto et al., 2011; cited from earlier work
[3] = system: U251; test: Proliferation in GBM-derived cell line U251; assay type: cell-based; settings: Homo sapiens, U-251
[4] = system: HA, T98G and U251 cell lines; test: Proliferation screen across the HA, T98G and U251 cell lines; settings: for Signficant Effect on Proliferation (cell lines): oncogene inhibitor paired with miRNA mimic(s) targeting the same oncogene, cell lines listed
[5] = system: HA, T98G and U251 cell lines; test: Apoptosis screen across the HA, T98G and U251 cell lines; assay type: cell-based, human; settings: oncogene inhibitor paired with miRNA mimic(s) targeting the same oncogene; cell lines listed

| SMILES | Effect in GBM cell lines [1] | half-life in patients [2] | IC50 [3] | Rank of single-agent effects on proliferation and apoptosis [4] | Signficant Effect on Proliferation (cell lines) [4] | Significant Effect on Apoptosis (cell lines) [5] |
| --- | --- | --- | --- | --- | --- | --- |
| C/C=C1\NC(=O)[C@H]2CSSCC/C=C/[C@H](CC(=O)N[C@H](C(C)C)C(=O)N2)OC(=O)[C@H](C(C)C)NC1=O [romidepsin, (1S,4S,7Z,10S,16E,21R)-7-ethylidene-4,21-diisopropyl-2-oxa-12,13-dithia-5,8,20,23-tetrazabicyclo[8.7.6]tricos-16-ene-3,6,9,19,22-pentone] | anti-proliferative and pro-apoptotic | short half-life | 1.1 nM | strongest effects on proliferation and apoptosis in every cell line | HA, U251 | – |
| CNC(=O)c1cc(Oc2ccc(NC(=O)Nc3ccc(Cl)c(C(F)(F)F)c3)cc2)ccn1 [Sorafenib, 4-[4-[[4-chloro-3-(trifluoromethyl)phenyl]carbamoylamino]phenoxy]-N-methyl-pyridine-2-carboxamide] | – | – | – | – | – | HA, 198G |
| O=C(CCCCCCC(=O)Nc1ccccc1)NO [Vorinostat, N-Hydroxy-N′-phenyloctanediamide] | – | – | – | – | HA, U251 | – |
